# Results from patent US10342794B2, “Substituted imidazo[1,2-a]pyrazines as Syk inhibitors” (Gilead Sciences, Inc., priority 2013, dated 2019).
# Tests used:
# [1] = tested on: basophils in human whole blood (CD63 expression); experiment: 384-Well HTBS Whole Blood CD63 Basophil Assay (25% blood); type: cell-based; conditions: for IC50: comparison table with known compounds, human whole blood basophils, head prints IC50; for EC50: human whole blood (25% blood), anti-FceRI mAb activation, CD63 on CCR3 positive cells
# Description: Syk activity was assessed in relation to reduced activation of basophils as measured by the expression of CD63 in a human whole blood basophil cellular assay (25% blood). Basophil activation was measured in human whole blood using the Flow CAST kit (Buhlmann Laboratories AG, Baselstrasse, Switzerland) following the protocol provided by the manufacturer with minor modifications. Fresh human whole blood in heparin was collected and delivered same day (AllCells, Emeryville, Calif.). Whole blood samples were incubated with either DMSO (1% final) or serial diluted compounds in DMSO for 60 minutes at 37° C. Basophils were activated using the anti-FceRI mAb and stained with anti-CD63-FITC and anti-CCR3-PE for 20 minutes at 37° C. (per well: 50 μL of whole blood was mixed with 113 μL of stimulation buffer, 8.5 μL anti-FceRI mAb, 8.5 μL Ab stain CCR3-PE/CD63-FITC). Cells were centrifuged at 1000×g for 18 minutes and 150 μL/well of supernatant removed. Red blood cells were lysed and cells fixed by 2 rounds of cell lysing: resuspending cell pellets with 150 μL/well 1× lysis buffer, incubating at room temperature for 10 minutes, and collecting cell pellets by centrifuging for 1200 rpms for 5 minutes. Cells were washed with 150 µL/well wash buffer twice, and resuspended in a final volume of 75 µL/well of wash buffer for either immediate flow cytometery analysis or overnight incubation at 4° C. followed by flow cytometry analysis. Degranulation (basophil activation) was detected by CD63 surface expression on CCR3 positive cells. The percent CD63 positive cells within the gated basophil population were determined and normalized to the DMSO (negative control) and control compound (positive control).
# [2] = tested on: human hepatocytes; experiment: Human Hepatocyte Stability Assay (predicted hepatocyte clearance); type: in vitro ADME
# Description: The human […] stability of the compounds as predicted hepatocyte clearance in L/hr/kg was assessed. Compounds to be tested were diluted to 200 μM (4 μl of 10 mM DMSO stock into 196 μl ACN:H2O (50:50). Propranolol was used as a positive control, and buffer only without hepatocytes as 0% control. These were further diluted 4 μl with 891 μl KHB buffer (InVitroGRO catalog number Z99074) to provide 2× dosing solution. To each well of 24 well plate, 250 μl of the 2× dosing solution was added to each well with 250 μl of hepatocytes cells (1×10^6 viable cells/ml per well) or KHB for control samples to achieve a final compound concentration of 1 μM during incubation. The final solvent concentration was 0.01% DMSO and 0.25% ACN. The culture plate was placed on a rocker and incubated at 37° C., 5% CO2. Samples were collected at time 0, 1, 3, and 6 hours. The loss of parent compound was determined using LC-MS methods against a standard curve.
# [3] = comparison table with known compounds, predicted hepatocyte clearance (L/hr/kg)
# [4] = predicted hepatocyte clearance, human hepatocytes, 1 μM compound, 0-6 hours
Compound,IC50 [1] [nM],"Hheps CL [2, 3] [L/h/kg]",EC50 [1] [nM],"Hheps CL [2, 4] [L/h/kg]"
"COc1ccc(Nc2nc(-c3cccc(N)c3)cn3ccnc23)cc1OC [6-(3-aminophenyl)-N-(3,4-dimethoxyphenyl)imidazo[1,2-a]pyrazin-8-amine, reference compound]",809,0.24,,
"Nc1cncc(-c2cn3ccnc3c(Nc3ccc(N4CCN(CC(CO)CO)CC4)cc3)n2)n1 [Ex.-6, 2-((4-(4-((6-(6-aminopyrazin-2-yl)imidazo[1,2-a]pyrazin-8-yl)amino)phenyl)piperazin-1-yl)methyl)propane-1,3-diol]",128,0.08,128,0.08
"Cc1ncc(-c2cn3ccnc3c(Nc3ccc(N4CCOCC4)cc3)n2)cc1N [6-(5-amino-6-methylpyridin-3-yl)-N-(4-morpholinophenyl)imidazo[1,2-a]pyrazin-8-amine, reference compound]",250,0.80,,
"Cc1c(-c2cncc(N)n2)nc(Nc2ccc(N3CCN(C4COC4)CC3)cc2)c2nccn12 [Ex.-4, 6-(6-aminopyrazin-2-yl)-5-methyl-N-(4-(4-(oxetan-3-yl)piperazin-1-yl)phenyl)imidazo[1,2-a]pyrazin-8-amine]",157,0.08,157,0.08
"Nc1cncc(-c2cn3ccnc3c(Nc3ccc(N4CCN(C5COC5)CC4)c(OCCO)c3)n2)n1 [Ex.-5, 2-(5-((6-(6-aminopyrazin-2-yl)imidazo[1,2-a]pyrazin-8-yl)amino)-2-(4-(oxetan-3-yl)piperazin-1-yl)phenoxy)ethanol]",120,0.07,120,0.07
"Nc1cncc(-c2cn3ccnc3c(Nc3ccc(N4CCO[C@@H](CO)C4)cc3)n2)n1 [Ex.-3, (R)-(4-(4-((6-(6-aminopyrazin-2-yl)imidazo[1,2-a]pyrazin-8-yl)amino)phenyl)morpholin-2-yl)methanol]",63,0.09,63,0.09
